Read-outs that look alike come from different tables or passages of the source. Marks after values point to notes of the source that are not given here.
How the values were obtained:
[1] = design: method as in earlier work; conditions: cited from earlier work
[2] = design: method as in PMID 22183173; conditions: adult healthy volunteers, cited from earlier work
[3] = design: species or system human
Description: The pharmacokinetic substudy for children weighing 25 kg to less than 40 kg was a within-subject, two-period, fixed-order, pharmacokinetic study with paediatric dolutegravir doses approved by the SRAs at the time of the study used in the first period and a higher (adult) dose of 50 mg as film-coated tablet in the second period. A child first completed 24-h intensive pharmacokinetic sampling after at least 1 week of receiving 25 mg film-coated tablets if they were in the 25 kg to less than 30 kg weight band or 35 mg (one 10 mg and one 25 mg film-coated tablet) if they were in the 30 to less than 40 kg weight band. The second 24-h pharmacokinetic profile was taken at least 1 week after the switch to a daily 50 mg film-coated tablet.
In a parallel pharmacokinetic substudy, children weighing 20 kg to less than 25 kg had 24-h intensive pharmacokinetic profiling on the once-daily dose of dolutegravir 25 mg film-coated tablet (part one). After review of the results, we did a subsequent substudy (part two) in children weighing 20 to less than 25 kg, investigating higher dolutegravir doses to achieve better exposures. On the basis of results of part one and to simplify dosing and future access to formulations, we studied the 50 mg adult film-coated tablet. Because we were concurrently investigating dispersible dolutegravir tablets in children weighing less than 20 kg (not reported here), we also studied a 30 mg dose given as six 5 mg dispersible tablets, which is bioequivalent to a 50 mg film-coated tablet,[16] as an option for children unable to swallow adult tablets. Dolutegravir 50 mg film-coated tablet or 30 mg dispersible tablet formulations were allocated by site. This substudy primarily enrolled children who had not participated in part one because children initially recruited in this weight band had gained weight and were no longer in the weight band.
To achieve steady-state, children attended their pharmacokinetic study visit day at least 7 days after starting on the investigated dolutegravir dose. We ascertained medication adherence during the last 3 days before the day of pharmacokinetic assessment to ensure that no doses had been missed. To construct a dolutegravir plasma concentration-time profile, blood samples of 2 mL were taken at baseline and 1, 2, 3, 4, 6, and 24 h after observed dolutegravir intake with 100 mL of water. To conform with adult comparator studies, participants fasted at least 3 h before dolutegravir intake, although an overnight fast was preferred. Dispersible tablets were dispersed in a small amount of water and immediately taken, followed by an additional intake of water up to a volume of 100 mL. We allowed no medications, other than nucleoside reverse transcriptase inhibitors, within 2 h after dolutegravir intake. Children fasted 2 h after dolutegravir intake before having a light breakfast (containing approximately 250 calories). During pharmacokinetic assessment days all food was provided at set times.
We refrigerated blood samples within 10 min and centrifuged them within 24 h of collection. Plasma was separated and stored at −80°C until shipping to the laboratory of the Department of Pharmacy, Radboudumc, Nijmegen, Netherlands for quantification with a validated liquid chromatography tandem mass spectrometry bioanalytical quantification method (lower limit of quantification of 0·01 mg/L).[18]
We included all participants consenting to inclusion in the pharmacokinetic substudies in the safety analyses. For the pharmacokinetic analyses, we considered haemolysed samples non-evaluable and excluded pharmacokinetic profiles if treatment non-adherence was likely (predefined when a predose concentration [C0] was >15 times below the concentration 24 h after observed drug intake (trough concentration [Ctrough]), if protocol violations had occurred, or if concomitant medications known to affect dolutegravir drug concentrations had been used. […]

[4] = Safety follow-up (serious, grade 3 or 4 adverse events) over 24 weeks in children of the pharmacokinetic substudies; type: in vivo, human
Description: Children enrolled in the pharmacokinetic substudies attended study visits following the main ODYSSEY trial protocol (visits every 12 weeks after week 4 from enrolment). Participants whose dose was increased to 30 mg dispersible tablets or the 50 mg film-coated tablet had additional safety visits at weeks 2, 4, and 12 after dose adaptation. At each visit, we did a clinical assessment, including haematology and biochemistry safety parameters. We ascertained serious adverse events (defined according to International Conference on Harmonisation Guideline for Good Clinical Practice), grade 3 and 4 clinical and laboratory events, and events resulting in modification of ART (any grade).
All children consenting to inclusion in a pharmacokinetic substudy contributed safety data from the start of each pharmacokinetic dose for 24 weeks or to last follow-up visit, whichever was earlier; no participant commenced a second pharmacokinetic dose before completing 24 weeks on the first pharmacokinetic dose with the exception of children weighing 25 kg to less than 40 kg crossing over from the doses approved by the SRAs at the time of the study the 50 mg film-coated tablet, with which follow-up could be shorter. As part of the ODYSSEY trial, an independent endpoint review committee who were masked to trial groups (third drug of ART regimen) reviewed all reported adverse events. We did descriptive analysis reporting follow-up and adverse events by dose and weight band in STATA (version 15.0). An independent data monitoring committee reviewed conduct, pharmacokinetic, and safety data from these substudies. The ODYSSEY trial is registered with ClinicalTrials.gov, NCT02259127.

plasma HIV-1 RNA = system: plasma HIV-1 RNA; design: method as in PMID 22018760; conditions: adults, 96 weeks, cited from earlier work
[5] = 20 to <25 kg, 9 patients (50 mg) FCT
[6] = 20 to <25 kg, 10 patients (30 mg) DT
[7] = 20 to <25 kg, 17 patients (25 mg) FCT
[8] = 25 to <30 kg, 17 patients (25 mg) FCT
[9] = 25 to <30 kg, 17 patients (50 mg) FCT
[10] = 30 to <40 kg, 11 patients (35 mg) FCT
[11] = 30 to <40 kg, 11 patients (50 mg) FCT

## C[C@@H]1CCO[C@H]2Cn3cc(C(=O)NCc4ccc(F)cc4F)c(=O)c(O)c3C(=O)N12 [dolutegravir]
[1]
  Bioequivalence of 30 mg dose as six 5 mg dispersible tablets to 50 mg film-coated tablet: bioequivalent
[2]; high fat meal
  Increase of C24 with food compared with fasting: 73%
[2]; low fat meal
  Increase of C24 with food compared with fasting: 33%
[2]; moderate fat meal
  Increase of C24 with food compared with fasting: 45%
[3]; human, 24 h
  Children with individual Ctrough below 0·32 mg/L (in vivo EC90): 12 (30%) n (%)
[3]; human, in vivo
  AUC0-24h / Dose geometric mean ratio (90% CI), 50 mg FCT vs 25/35 mg FCT: 0∙91 (0∙85-0∙97)
  Cmax / Dose geometric mean ratio (90% CI), 50 mg FCT vs 25/35 mg FCT: 0∙89 (0∙82-0∙96)
  GM Cmax higher than in adults on 50 mg twice-daily: 32%
[3]; human, in vivo, 50 mg
  GM Cmax higher than in adults on 50 mg twice-daily: 17%
[3]; human, in vivo, 24 h
  Ctrough / Dose geometric mean ratio (90% CI), 50 mg FCT vs 25/35 mg FCT: 0∙98 (0∙87-1∙10)
  Ctrough geometric mean ratio (90% CI), 50 mg FCT vs 30 mg DT: 0∙99 (0∙57-1∙71)
[3]; in vivo
  Equivalence, 50 mg FCT vs 30 mg DT: Suggested
[4]; 17 patients (25 mg) FCT
  Total adverse events (grade 3 or 4 or serious adverse event): 3 (18%) n (%)
[4]; [5]
  Anaemia (grade 3 or 4 asymptomatic laboratory event): 0 n (%)
  Cryptococcal meningitis (grade 3 or 4 clinical adverse event): 0 n (%)
  Grade 3 or 4 asymptomatic laboratory events: 0 n (%)
  Grade 3 or 4 clinical adverse events: 0 n (%)
  Neutropenia (grade 3 or 4 asymptomatic laboratory event): 0 n (%)
  Thrombocytopenia and raised transaminases (grade 3 or 4 asymptomatic laboratory event): 0 n (%)
[4]; [6]
  Anaemia (grade 3 or 4 asymptomatic laboratory event): 0 n (%)
  Cryptococcal meningitis (grade 3 or 4 clinical adverse event): 0 n (%)
  Grade 3 or 4 asymptomatic laboratory events: 0 n (%)
  Grade 3 or 4 clinical adverse events: 0 n (%)
  Neutropenia (grade 3 or 4 asymptomatic laboratory event): 0 n (%)
  Thrombocytopenia and raised transaminases (grade 3 or 4 asymptomatic laboratory event): 0 n (%)
[4]; [7]
  Anaemia (grade 3 or 4 asymptomatic laboratory event): 0 n (%)
  Cryptococcal meningitis (grade 3 or 4 clinical adverse event): 0 n (%)
  Grade 3 or 4 asymptomatic laboratory events: 3 (18%) n (%)
  Grade 3 or 4 clinical adverse events: 0 n (%)
[4]; [8]
  Anaemia (grade 3 or 4 asymptomatic laboratory event): 0 n (%)
  Cryptococcal meningitis (grade 3 or 4 clinical adverse event): 0 n (%)
  Grade 3 or 4 asymptomatic laboratory events: 0 n (%)
  Grade 3 or 4 clinical adverse events: 0 n (%)
  Neutropenia (grade 3 or 4 asymptomatic laboratory event): 0 n (%)
  Thrombocytopenia and raised transaminases (grade 3 or 4 asymptomatic laboratory event): 0 n (%)
[4]; [9]
  Anaemia (grade 3 or 4 asymptomatic laboratory event): 0 n (%)
  Cryptococcal meningitis (grade 3 or 4 clinical adverse event): 0 n (%)
  Grade 3 or 4 asymptomatic laboratory events: 1 (6%) n (%)
  Grade 3 or 4 clinical adverse events: 0 n (%)
  Neutropenia (grade 3 or 4 asymptomatic laboratory event): 1 (6%) n (%)
  Thrombocytopenia and raised transaminases (grade 3 or 4 asymptomatic laboratory event): 0 n (%)
  Total adverse events (grade 3 or 4 or serious adverse event): 1 (6%) n (%)
[4]; 28 children weighing 25 kg or more on 50 mg film-coated tablets, follow-up 24 weeks
  Reportable adverse events: three
[4]; [10]
  Anaemia (grade 3 or 4 asymptomatic laboratory event): 0 n (%)
  Cryptococcal meningitis (grade 3 or 4 clinical adverse event): 0 n (%)
  Grade 3 or 4 asymptomatic laboratory events: 0 n (%)
  Grade 3 or 4 clinical adverse events: 0 n (%)
  Neutropenia (grade 3 or 4 asymptomatic laboratory event): 0 n (%)
  Thrombocytopenia and raised transaminases (grade 3 or 4 asymptomatic laboratory event): 0 n (%)
[4]; [11]
  Anaemia (grade 3 or 4 asymptomatic laboratory event): 1 (9%) n (%)
  Grade 3 or 4 asymptomatic laboratory events: 1 (9%) n (%)
  Grade 3 or 4 clinical adverse events: 1 (9%) n (%)
  Neutropenia (grade 3 or 4 asymptomatic laboratory event): 0 n (%)
  Thrombocytopenia and raised transaminases (grade 3 or 4 asymptomatic laboratory event): 0 n (%)
  Total adverse events (grade 3 or 4 or serious adverse event): 2 (18%) n (%)
[4]; 30 to <40 kg, 11 patients (50 mg) FCT, serious adverse event
  Cryptococcal meningitis (grade 3 or 4 clinical adverse event): 1 (9%) ^** n (%)
[4]; 47 children on 50 mg film-coated tablet or 30 mg dispersible tablets, reporting clinicians and endpoint review committee
  Adverse events considered related to dolutegravir: none
Plasma HIV-1 RNA; 10 mg film-coated tablet once daily
  Sustained virological response rate (plasma HIV-1 RNA <50 copies per mL): 79%
Plasma HIV-1 RNA; 50 mg film-coated tablet once daily
  Sustained virological response rate (plasma HIV-1 RNA <50 copies per mL): 88%

Reference: PMC7445428, “Simplified dolutegravir dosing for children with HIV weighing 20 kg or more: pharmacokinetic and safety substudies of the multicentre, randomised ODYSSEY trial” (The Lancet. HIV, 2020)
